PubChem BioAssay AID602482 (Sanford-Burnham Center for Chemical Genomics, 2012)
Active and inactive are the calls of the source.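 How the source made its calls: active means compounds whose mean concentration giving half-maximal cell killing is 20 µM or lower; inactive means the rest.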

Test system: NTR1-U2OS viability, ATPLite luminescence, 24 h
Assay: cytotoxicity in NTR1-U2OS cells, SAR follow-up, cytotoxicity control for NTR1 agonist project, cell-based, luminescence, ATPLite (AID 602482)

SMILES	IC50
COc1cc2nc(C3CC3)nc(N3CCN(c4ccccc4OC)CC3)c2cc1OC	25.4 µM (inactive)
COc1cccc(OC)c1-c1nc(C(=O)N[C@@H](CC(C)C)C(=O)O)cn1-c1ccnc2cc(Cl)ccc12	> 80 µM (inactive)
